Several values for one entry are separate records, joined by “and”; a condition that tells them apart may be missing. Identical values can stand only once.
Experiment: molar heat capacity at constant pressure
Details: 101.33 kPa

O=Cc1ccc(Cl)cc1Cl [2,4-dichlorobenzaldehyde]
Details	molar heat capacity at constant pressure
79.17 K, Crystal	71.3 J/K/mol
80 K, Crystal	71.33 J/K/mol
81.36 K, Crystal	72.02 J/K/mol
83.11 K, Crystal	72.63 J/K/mol
85 K, Crystal	73.98 J/K/mol
85.3 K, Crystal	73.72 J/K/mol
87.49 K, Crystal	74.91 J/K/mol
89.6 K, Crystal	76.29 J/K/mol
90 K, Crystal	76.75 J/K/mol
91.66 K, Crystal	77.86 J/K/mol
93.69 K, Crystal	79.02 J/K/mol
95 K, Crystal	79.6 J/K/mol
95.68 K, Crystal	80.2 J/K/mol
97.64 K, Crystal	81.37 J/K/mol
99.56 K, Crystal	82.67 J/K/mol
100 K, Crystal	82.48 J/K/mol
101.45 K, Crystal	83.56 J/K/mol
103.32 K, Crystal	84.39 J/K/mol
105 K, Crystal	85.38 J/K/mol
105.16 K, Crystal	85.43 J/K/mol
106.97 K, Crystal	86.65 J/K/mol
108.76 K, Crystal	87.94 J/K/mol
110 K, Crystal	88.26 J/K/mol
110.53 K, Crystal	88.83 J/K/mol
112.28 K, Crystal	89.53 J/K/mol
114 K, Crystal	90.58 J/K/mol
115 K, Crystal	91.11 J/K/mol
115.71 K, Crystal	91.48 J/K/mol
117.4 K, Crystal	92.47 J/K/mol
119.07 K, Crystal	93.42 J/K/mol
120 K, Crystal	93.92 J/K/mol
120.73 K, Crystal	94.06 J/K/mol
122.36 K, Crystal	94.81 J/K/mol
123.99 K, Crystal	95.87 J/K/mol
125 K, Crystal	96.69 J/K/mol
125.6 K, Crystal	96.98 J/K/mol
127.19 K, Crystal	97.8 J/K/mol
128.78 K, Crystal	98.46 J/K/mol
130 K, Crystal	99.4 J/K/mol
130.34 K, Crystal	99.55 J/K/mol
131.9 K, Crystal	100.68 J/K/mol
133.44 K, Crystal	101.08 J/K/mol
134.97 K, Crystal	101.62 J/K/mol
135 K, Crystal	102.07 J/K/mol
136.49 K, Crystal	102.52 J/K/mol
138 K, Crystal	103.61 J/K/mol
139.5 K, Crystal	104.14 J/K/mol
140 K, Crystal	104.7 J/K/mol
140.99 K, Crystal	104.87 J/K/mol
142.47 K, Crystal	105.48 J/K/mol
143.93 K, Crystal	106.66 J/K/mol
145 K, Crystal	107.29 J/K/mol
145.39 K, Crystal	107.75 J/K/mol
146.84 K, Crystal	108.26 J/K/mol
148.28 K, Crystal	109.04 J/K/mol
149.71 K, Crystal	109.83 J/K/mol
150 K, Crystal	109.85 J/K/mol
151.13 K, Crystal	111.12 J/K/mol
152.54 K, Crystal	111.74 J/K/mol
153.94 K, Crystal	112.08 J/K/mol
155 K, Crystal	112.39 J/K/mol
155.34 K, Crystal	112.93 J/K/mol
157.51 K, Crystal	113.86 J/K/mol
160 K, Crystal	114.92 J/K/mol
160.42 K, Crystal	115.39 J/K/mol
163.32 K, Crystal	116.39 J/K/mol
165 K, Crystal	117.44 J/K/mol
166.18 K, Crystal	117.94 J/K/mol
169.01 K, Crystal	119.36 J/K/mol
170 K, Crystal	119.97 J/K/mol
171.81 K, Crystal	121.11 J/K/mol
174.59 K, Crystal	122.69 J/K/mol
175 K, Crystal	122.52 J/K/mol
177.33 K, Crystal	124.06 J/K/mol
180 K, Crystal	125.09 J/K/mol
180.05 K, Crystal	125.43 J/K/mol
182.75 K, Crystal	126.44 J/K/mol
185 K, Crystal	127.68 J/K/mol
185.43 K, Crystal	127.77 J/K/mol
190 K, Crystal	130.3 J/K/mol
190.71 K, Crystal	130.68 J/K/mol
193.31 K, Crystal	131.82 J/K/mol
195 K, Crystal	133 J/K/mol
195.91 K, Crystal	133.03 J/K/mol
198.41 K, Crystal	134.61 J/K/mol
200 K, Crystal	135.65 J/K/mol
200.76 K, Crystal	135.6 J/K/mol
203.12 K, Crystal	136.47 J/K/mol
205 K, Crystal	138.37 J/K/mol
205.61 K, Crystal	137.67 J/K/mol
208.11 K, Crystal	139.14 J/K/mol
210 K, Crystal	141.12 J/K/mol
210.61 K, Crystal	140.62 J/K/mol
213.05 K, Crystal	142.39 J/K/mol
215 K, Crystal	143.89 J/K/mol
215.46 K, Crystal	143.66 J/K/mol
217.88 K, Crystal	145.35 J/K/mol
220 K, Crystal	146.69 J/K/mol
220.3 K, Crystal	147.01 J/K/mol
222.73 K, Crystal	148.63 J/K/mol
225 K, Crystal	149.5 J/K/mol
225.15 K, Crystal	150.44 J/K/mol
227.5 K, Crystal	152.1 J/K/mol
229.92 K, Crystal	153.24 J/K/mol
230 K, Crystal	152.31 J/K/mol
232.35 K, Crystal	154.92 J/K/mol
234.92 K, Crystal	156.38 J/K/mol
235 K, Crystal	155.12 J/K/mol
237.8 K, Crystal	157.76 J/K/mol
240 K, Crystal	157.9 J/K/mol
240.46 K, Crystal	159.08 J/K/mol
242.88 K, Crystal	160.14 J/K/mol
245 K, Crystal	160.64 J/K/mol
245.08 K, Crystal	161.43 J/K/mol
247.12 K, Crystal	162.34 J/K/mol
249.24 K, Crystal	163.27 J/K/mol
250 K, Crystal	163.39 J/K/mol
251.44 K, Crystal	164.55 J/K/mol
253.56 K, Crystal	165.45 J/K/mol
255 K, Crystal	166.07 J/K/mol
255.68 K, Crystal	166.2 J/K/mol
257.73 K, Crystal	166.92 J/K/mol
259.85 K, Crystal	167.67 J/K/mol
260 K, Crystal	168.69 J/K/mol
261.89 K, Crystal	168.77 J/K/mol
264.01 K, Crystal	169.61 J/K/mol
265 K, Crystal	171.25 J/K/mol
266.06 K, Crystal	170.55 J/K/mol
268.03 K, Crystal	171.61 J/K/mol
270 K, Crystal	173.73 J/K/mol
270.08 K, Crystal	172.38 J/K/mol
272.05 K, Crystal	173.75 J/K/mol
274.01 K, Crystal	174.95 J/K/mol
275 K, Crystal	176.14 J/K/mol
275.99 K, Crystal	175.77 J/K/mol
277.95 K, Crystal	176.86 J/K/mol
279.85 K, Crystal	177.84 J/K/mol
280 K, Crystal	178.48 J/K/mol
281.74 K, Crystal	178.91 J/K/mol
283.64 K, Crystal	179.72 J/K/mol
285 K, Crystal	180.75 J/K/mol
285.53 K, Crystal	180.86 J/K/mol
287.42 K, Crystal	181.6 J/K/mol
289.24 K, Crystal	182.74 J/K/mol
290 K, Crystal	182.93 J/K/mol
291.06 K, Crystal	183.73 J/K/mol
292.88 K, Crystal	184.79 J/K/mol
294.62 K, Crystal	185.72 J/K/mol
295 K, Crystal	185.12 J/K/mol
296.36 K, Crystal	186.66 J/K/mol
298.03 K, Crystal	187.45 J/K/mol
298.15 K, Crystal	186.47 J/K/mol
299.7 K, Crystal	187.95 J/K/mol
301.36 K, Crystal	188.77 J/K/mol
303.86 K, Crystal	189.94 J/K/mol
305 K, Crystal	189.4 J/K/mol
306.12 K, Crystal	191.07 J/K/mol
308.39 K, Crystal	191.8 J/K/mol
310 K, Crystal	191.58 J/K/mol
310.67 K, Crystal	192.53 J/K/mol
312.95 K, Crystal	193.73 J/K/mol
315 K, Crystal	193.86 J/K/mol
319.7 K, Crystal	196.52 J/K/mol
320 K, Crystal	196.27 J/K/mol
321.89 K, Crystal	197.35 J/K/mol
324.09 K, Crystal	198.21 J/K/mol
325 K, Crystal	198.9 J/K/mol
326.21 K, Crystal	199.12 J/K/mol
328.41 K, Crystal	199.91 J/K/mol
330 K, Crystal	201.83 J/K/mol
330.53 K, Crystal	200.78 J/K/mol
332.65 K, Crystal	201.79 J/K/mol
334.67 K, Crystal	202.59 J/K/mol
335 K, Crystal	205.15 J/K/mol
336.74 K, Crystal	203.39 J/K/mol
338.77 K, Crystal	205.71 J/K/mol
340 K, Crystal	208.96 J/K/mol
350 K, Liquid	208.08 J/K/mol
350.08 K, Liquid	208.1 J/K/mol
351.82 K, Liquid	208.76 J/K/mol
353.56 K, Liquid	209.27 J/K/mol
355 K, Liquid	209.85 J/K/mol
355.74 K, Liquid	210.16 J/K/mol
357.14 K, Liquid	210.51 J/K/mol
358.64 K, Liquid	210.8 J/K/mol
360 K, Liquid	211.16 J/K/mol
361.51 K, Liquid	211.51 J/K/mol
362.95 K, Liquid	211.74 J/K/mol
364.32 K, Liquid	212.33 J/K/mol
365 K, Liquid	212.44 J/K/mol
365.61 K, Liquid	212.74 J/K/mol
366.82 K, Liquid	213.06 J/K/mol
367.95 K, Liquid	213.48 J/K/mol
369.01 K, Liquid	213.84 J/K/mol
369.7 K, Liquid	214.36 J/K/mol
370 K, Liquid	214.39 J/K/mol and 214.31 J/K/mol
370.76 K, Liquid	214.45 J/K/mol
371.51 K, Liquid	214.51 J/K/mol and 214.66 J/K/mol

Source: the NIST ThermoML archive (doi:10.1016/j.jct.2004.01.006)
